ChEMBL document CHEMBL1201862, “PubChem BioAssay data set” (2004)
Calls of active or inactive are those of the source.

How the values were obtained:
H4 = experiment: Luminescence Cell-Based Dose Response HTS to Identify Activators of 5'UTR Stem-Loop Driven Prion Protein mRNA Translation in H4 Neuroglioblastoma Cells. [Related pubchem assays: 1829 (Project Summary), 1814 (Primary HTS)]; format: functional; conditions: Homo sapiens
[1] = Luminescence Cell-Based Dose Response HTS to Identify Activators of Luciferase Translation or Activity in H4 […] Cells. [Related pubchem assays: 1829 (Project Summary), 1814 (Primary HTS)]; format: functional
Keap1/Nrf2 = Keap1/Nrf2 (Homo sapiens, UniProt Q14145); experiment: disruptors of Keap1 binding to Nrf2 peptide – biochemical, fluorescence polarization, cherry-picked samples, dose response (AID 588683)
Large T antigen = Large T antigen (Simian virus 40, UniProt P03070); format: functional, Betapolyomavirus macacae;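 also: Confirmatory-stage PubChem screen for compounds that inhibit SV40 T antigen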
Phosphomannomutase 2 = Phosphomannomutase 2 (Homo sapiens, UniProt O15305); experiment: Counter screen SAR assay for PMM2 inhibitors via a fluorescence intensity assay. [Related pubchem assays (depositor defined):AID1545, AID1574]
[2] = molecular target: T1, Mannose-6-phosphate isomerase (Homo sapiens, UniProt P34949); experiment: phosphomannose isomerase inhibition – biochemical, fluorescence intensity, confirmation (AID 1535)
T1 sequence (P34949 whole entry): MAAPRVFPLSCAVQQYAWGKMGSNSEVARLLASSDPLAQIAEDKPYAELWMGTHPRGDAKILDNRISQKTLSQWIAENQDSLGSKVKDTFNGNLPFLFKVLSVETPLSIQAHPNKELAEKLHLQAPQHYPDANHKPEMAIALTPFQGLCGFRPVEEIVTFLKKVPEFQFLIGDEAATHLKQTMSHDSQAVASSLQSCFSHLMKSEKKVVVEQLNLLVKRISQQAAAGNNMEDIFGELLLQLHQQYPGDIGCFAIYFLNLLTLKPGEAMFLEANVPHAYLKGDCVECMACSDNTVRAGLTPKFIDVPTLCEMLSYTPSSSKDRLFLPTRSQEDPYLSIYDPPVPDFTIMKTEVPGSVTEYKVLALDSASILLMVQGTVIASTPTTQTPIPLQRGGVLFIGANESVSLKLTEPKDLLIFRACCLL

[3] = molecular target: T2, Apoptotic protease-activating factor 1 (Homo sapiens, UniProt O14727); experiment: activation of Apaf-1 mediated apoptosis – fluorescent, uHTS hits, dose response (AID 588554); format: functional
T2 sequence (O14727 whole entry): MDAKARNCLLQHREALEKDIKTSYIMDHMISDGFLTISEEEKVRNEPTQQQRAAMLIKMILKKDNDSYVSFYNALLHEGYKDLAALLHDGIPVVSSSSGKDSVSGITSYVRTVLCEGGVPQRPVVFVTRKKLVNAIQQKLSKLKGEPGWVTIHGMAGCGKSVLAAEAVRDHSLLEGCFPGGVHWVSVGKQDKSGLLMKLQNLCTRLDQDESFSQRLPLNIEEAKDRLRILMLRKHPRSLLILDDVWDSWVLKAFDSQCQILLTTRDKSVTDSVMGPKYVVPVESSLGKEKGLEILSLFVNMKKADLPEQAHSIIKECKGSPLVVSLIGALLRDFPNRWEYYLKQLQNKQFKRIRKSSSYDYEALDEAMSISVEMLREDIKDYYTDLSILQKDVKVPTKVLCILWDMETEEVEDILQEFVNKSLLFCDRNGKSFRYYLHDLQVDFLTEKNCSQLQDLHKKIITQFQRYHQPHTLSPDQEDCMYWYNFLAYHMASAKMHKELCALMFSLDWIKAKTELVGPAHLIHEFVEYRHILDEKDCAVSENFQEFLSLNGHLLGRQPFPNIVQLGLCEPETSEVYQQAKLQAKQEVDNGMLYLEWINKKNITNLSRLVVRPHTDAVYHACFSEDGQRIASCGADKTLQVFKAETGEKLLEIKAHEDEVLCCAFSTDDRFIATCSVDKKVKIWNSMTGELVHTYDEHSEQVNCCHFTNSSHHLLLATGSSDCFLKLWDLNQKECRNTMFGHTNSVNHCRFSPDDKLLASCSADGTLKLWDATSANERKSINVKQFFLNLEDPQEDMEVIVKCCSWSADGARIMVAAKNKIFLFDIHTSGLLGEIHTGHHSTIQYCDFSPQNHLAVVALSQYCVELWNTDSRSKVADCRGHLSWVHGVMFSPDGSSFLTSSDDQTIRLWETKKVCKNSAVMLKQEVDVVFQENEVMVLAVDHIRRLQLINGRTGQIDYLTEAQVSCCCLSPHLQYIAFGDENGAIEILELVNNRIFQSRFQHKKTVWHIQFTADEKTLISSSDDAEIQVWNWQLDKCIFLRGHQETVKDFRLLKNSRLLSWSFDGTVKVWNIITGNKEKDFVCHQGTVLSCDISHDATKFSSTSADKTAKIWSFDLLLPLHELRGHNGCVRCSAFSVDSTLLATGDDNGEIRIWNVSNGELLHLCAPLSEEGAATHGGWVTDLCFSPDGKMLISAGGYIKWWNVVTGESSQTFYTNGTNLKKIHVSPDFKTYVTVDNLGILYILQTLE

[4] = molecular target: T3, Replicative DNA helicase DnaB (Mycobacterium tuberculosis, UniProt P9WMR3); experiment: DnaB intein splicing inhibitors, dose response, biochemical, cell-free fluorescence (AID 449749); format: functional
T3 sequence (P9WMR3 whole entry): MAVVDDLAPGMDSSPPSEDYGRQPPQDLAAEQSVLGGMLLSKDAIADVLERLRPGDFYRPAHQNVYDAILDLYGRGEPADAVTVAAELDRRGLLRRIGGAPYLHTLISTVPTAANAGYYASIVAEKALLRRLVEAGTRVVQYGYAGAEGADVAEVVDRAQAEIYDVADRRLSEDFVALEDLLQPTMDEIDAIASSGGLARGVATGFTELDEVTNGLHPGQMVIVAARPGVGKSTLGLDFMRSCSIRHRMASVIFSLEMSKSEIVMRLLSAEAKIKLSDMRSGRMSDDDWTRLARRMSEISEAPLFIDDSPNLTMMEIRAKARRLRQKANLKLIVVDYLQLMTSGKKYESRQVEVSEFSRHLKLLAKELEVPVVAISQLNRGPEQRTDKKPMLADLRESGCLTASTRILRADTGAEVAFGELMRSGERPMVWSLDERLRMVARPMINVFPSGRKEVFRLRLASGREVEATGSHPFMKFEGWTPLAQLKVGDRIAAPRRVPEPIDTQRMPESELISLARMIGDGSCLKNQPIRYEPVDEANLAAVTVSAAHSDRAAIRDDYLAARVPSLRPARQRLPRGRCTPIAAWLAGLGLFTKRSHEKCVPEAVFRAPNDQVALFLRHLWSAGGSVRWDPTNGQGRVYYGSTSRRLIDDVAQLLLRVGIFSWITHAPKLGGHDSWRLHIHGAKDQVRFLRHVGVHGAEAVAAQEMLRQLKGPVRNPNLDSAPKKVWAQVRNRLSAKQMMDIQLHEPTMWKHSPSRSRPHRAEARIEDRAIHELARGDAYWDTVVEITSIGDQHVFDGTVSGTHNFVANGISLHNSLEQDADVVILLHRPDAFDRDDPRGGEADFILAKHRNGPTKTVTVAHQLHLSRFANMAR

[5] = molecular target: T1, Mannose-6-phosphate isomerase; experiment: MPI inhibition at elevated mannose 6-phosphate – biochemical, fluorescence intensity, high mannose 6-phosphate, primary screen (AID 1220)
[6] = molecular target: Lysine-specific demethylase 4C (Homo sapiens, UniProt Q9H3R0); experiment: inhibition of JMJD2C H3K9me3 demethylation – biochemical, DELFIA europium, cherry-picked samples, dose response (AID 488835); format: functional
[7] = molecular target: T4, Histone-lysine N-methyltransferase NSD2 (Homo sapiens, UniProt O96028); format: biochemical
T4 sequence (O96028 whole entry): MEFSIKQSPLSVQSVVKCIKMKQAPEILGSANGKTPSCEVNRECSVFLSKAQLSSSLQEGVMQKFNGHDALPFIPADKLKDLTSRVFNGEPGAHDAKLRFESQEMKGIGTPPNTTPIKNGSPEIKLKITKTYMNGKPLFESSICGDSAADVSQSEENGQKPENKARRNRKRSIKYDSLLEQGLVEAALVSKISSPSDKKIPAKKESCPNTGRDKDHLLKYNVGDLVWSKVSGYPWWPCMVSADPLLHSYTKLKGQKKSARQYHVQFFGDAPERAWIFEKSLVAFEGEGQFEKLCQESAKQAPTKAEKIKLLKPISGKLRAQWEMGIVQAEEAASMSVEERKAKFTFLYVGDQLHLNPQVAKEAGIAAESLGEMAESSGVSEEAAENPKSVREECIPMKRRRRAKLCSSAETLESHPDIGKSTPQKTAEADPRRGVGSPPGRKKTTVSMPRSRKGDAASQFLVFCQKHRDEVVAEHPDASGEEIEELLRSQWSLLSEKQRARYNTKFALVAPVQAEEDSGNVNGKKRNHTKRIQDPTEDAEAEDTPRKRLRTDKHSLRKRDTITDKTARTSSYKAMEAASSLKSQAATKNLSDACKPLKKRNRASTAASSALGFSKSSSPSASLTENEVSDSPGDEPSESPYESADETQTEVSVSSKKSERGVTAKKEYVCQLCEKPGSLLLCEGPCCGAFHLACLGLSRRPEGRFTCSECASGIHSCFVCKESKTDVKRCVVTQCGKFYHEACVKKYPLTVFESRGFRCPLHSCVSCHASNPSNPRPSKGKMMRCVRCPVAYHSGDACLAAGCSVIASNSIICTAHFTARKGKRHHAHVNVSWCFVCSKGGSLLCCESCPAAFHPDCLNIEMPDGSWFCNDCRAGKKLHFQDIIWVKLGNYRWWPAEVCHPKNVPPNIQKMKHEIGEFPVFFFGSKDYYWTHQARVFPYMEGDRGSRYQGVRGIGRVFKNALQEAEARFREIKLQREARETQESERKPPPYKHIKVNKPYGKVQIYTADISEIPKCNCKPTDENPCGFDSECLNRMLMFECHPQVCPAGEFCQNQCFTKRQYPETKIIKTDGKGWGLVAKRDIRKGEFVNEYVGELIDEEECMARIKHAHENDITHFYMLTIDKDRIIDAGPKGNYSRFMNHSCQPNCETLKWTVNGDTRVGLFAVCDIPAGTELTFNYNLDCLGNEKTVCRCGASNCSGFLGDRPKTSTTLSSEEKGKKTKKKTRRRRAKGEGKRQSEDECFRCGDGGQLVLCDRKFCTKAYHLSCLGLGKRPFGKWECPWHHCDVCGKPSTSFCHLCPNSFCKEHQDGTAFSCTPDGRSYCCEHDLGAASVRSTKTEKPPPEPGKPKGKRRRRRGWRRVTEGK

Protein RecA = molecular target: T5, Protein RecA (Mycobacterium tuberculosis, UniProt P9WHJ3); experiment: Fluorescence Cell-Free Homogeneous Dose Retest to Identify Inhibitors of RecA-Intein Splicing Activity. [Related pubchem assays (depositor defined):AID2097, AID2223, AID489010, AID492950]; format: functional
T5 sequence (P9WHJ3 whole entry): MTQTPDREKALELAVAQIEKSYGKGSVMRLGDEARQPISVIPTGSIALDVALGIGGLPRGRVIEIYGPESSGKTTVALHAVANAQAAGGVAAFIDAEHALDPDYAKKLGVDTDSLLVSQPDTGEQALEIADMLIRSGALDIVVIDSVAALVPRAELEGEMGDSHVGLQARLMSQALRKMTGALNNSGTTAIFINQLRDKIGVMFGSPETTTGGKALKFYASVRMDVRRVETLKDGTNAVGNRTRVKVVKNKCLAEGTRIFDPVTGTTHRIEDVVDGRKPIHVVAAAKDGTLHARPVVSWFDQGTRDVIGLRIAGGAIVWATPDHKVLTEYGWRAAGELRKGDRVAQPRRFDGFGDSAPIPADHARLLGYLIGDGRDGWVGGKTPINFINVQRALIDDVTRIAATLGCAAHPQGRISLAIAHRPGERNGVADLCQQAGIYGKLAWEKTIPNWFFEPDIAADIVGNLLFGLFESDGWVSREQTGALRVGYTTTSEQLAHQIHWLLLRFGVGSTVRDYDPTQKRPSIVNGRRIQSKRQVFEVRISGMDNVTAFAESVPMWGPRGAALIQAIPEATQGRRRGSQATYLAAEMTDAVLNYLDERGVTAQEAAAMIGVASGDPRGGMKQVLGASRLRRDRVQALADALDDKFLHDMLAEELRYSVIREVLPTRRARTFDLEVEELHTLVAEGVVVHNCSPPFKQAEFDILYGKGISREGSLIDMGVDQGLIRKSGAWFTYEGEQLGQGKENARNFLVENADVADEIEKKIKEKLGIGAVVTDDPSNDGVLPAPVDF

[8] = molecular target: Potassium voltage-gated channel subfamily KQT member 2 (Rattus norvegicus, UniProt O88943); experiment: rat KCNQ2 current potentiators – automated patch clamp, KCNQ2-CHO cells, SAR follow-up (AID 493113); format: functional
Sequence of Potassium voltage-gated channel subfamily KQT member 2 (O88943 whole entry): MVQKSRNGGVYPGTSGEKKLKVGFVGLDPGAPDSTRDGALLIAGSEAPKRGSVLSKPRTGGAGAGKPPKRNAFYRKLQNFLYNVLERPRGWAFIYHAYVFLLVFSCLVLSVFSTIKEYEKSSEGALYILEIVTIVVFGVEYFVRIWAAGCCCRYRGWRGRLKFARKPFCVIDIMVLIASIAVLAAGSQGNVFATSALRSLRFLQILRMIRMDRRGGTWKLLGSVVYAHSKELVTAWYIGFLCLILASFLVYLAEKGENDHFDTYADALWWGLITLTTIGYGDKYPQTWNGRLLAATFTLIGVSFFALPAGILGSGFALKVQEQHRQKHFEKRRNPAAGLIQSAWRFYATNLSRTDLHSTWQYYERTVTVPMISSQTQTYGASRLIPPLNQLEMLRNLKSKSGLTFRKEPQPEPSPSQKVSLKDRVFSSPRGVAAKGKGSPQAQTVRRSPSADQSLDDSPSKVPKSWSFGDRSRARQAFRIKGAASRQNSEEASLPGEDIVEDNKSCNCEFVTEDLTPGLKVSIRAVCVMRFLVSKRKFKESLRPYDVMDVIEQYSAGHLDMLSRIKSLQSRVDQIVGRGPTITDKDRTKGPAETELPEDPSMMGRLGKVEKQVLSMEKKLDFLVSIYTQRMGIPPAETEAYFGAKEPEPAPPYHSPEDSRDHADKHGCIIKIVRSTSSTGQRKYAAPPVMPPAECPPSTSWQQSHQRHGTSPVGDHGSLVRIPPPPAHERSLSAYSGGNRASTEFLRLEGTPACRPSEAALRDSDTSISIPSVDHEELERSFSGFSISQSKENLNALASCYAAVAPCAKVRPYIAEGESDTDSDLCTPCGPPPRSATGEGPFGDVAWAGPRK

Sequence of Phosphomannomutase 2 (O15305 whole entry): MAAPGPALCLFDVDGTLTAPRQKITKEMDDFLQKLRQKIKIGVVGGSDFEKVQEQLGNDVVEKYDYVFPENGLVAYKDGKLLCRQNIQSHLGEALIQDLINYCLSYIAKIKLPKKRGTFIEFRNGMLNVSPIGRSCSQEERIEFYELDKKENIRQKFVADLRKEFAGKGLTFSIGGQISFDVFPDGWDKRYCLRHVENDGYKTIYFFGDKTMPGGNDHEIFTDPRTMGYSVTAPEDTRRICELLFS
Sequence of Lysine-specific demethylase 4C (Q9H3R0 whole entry): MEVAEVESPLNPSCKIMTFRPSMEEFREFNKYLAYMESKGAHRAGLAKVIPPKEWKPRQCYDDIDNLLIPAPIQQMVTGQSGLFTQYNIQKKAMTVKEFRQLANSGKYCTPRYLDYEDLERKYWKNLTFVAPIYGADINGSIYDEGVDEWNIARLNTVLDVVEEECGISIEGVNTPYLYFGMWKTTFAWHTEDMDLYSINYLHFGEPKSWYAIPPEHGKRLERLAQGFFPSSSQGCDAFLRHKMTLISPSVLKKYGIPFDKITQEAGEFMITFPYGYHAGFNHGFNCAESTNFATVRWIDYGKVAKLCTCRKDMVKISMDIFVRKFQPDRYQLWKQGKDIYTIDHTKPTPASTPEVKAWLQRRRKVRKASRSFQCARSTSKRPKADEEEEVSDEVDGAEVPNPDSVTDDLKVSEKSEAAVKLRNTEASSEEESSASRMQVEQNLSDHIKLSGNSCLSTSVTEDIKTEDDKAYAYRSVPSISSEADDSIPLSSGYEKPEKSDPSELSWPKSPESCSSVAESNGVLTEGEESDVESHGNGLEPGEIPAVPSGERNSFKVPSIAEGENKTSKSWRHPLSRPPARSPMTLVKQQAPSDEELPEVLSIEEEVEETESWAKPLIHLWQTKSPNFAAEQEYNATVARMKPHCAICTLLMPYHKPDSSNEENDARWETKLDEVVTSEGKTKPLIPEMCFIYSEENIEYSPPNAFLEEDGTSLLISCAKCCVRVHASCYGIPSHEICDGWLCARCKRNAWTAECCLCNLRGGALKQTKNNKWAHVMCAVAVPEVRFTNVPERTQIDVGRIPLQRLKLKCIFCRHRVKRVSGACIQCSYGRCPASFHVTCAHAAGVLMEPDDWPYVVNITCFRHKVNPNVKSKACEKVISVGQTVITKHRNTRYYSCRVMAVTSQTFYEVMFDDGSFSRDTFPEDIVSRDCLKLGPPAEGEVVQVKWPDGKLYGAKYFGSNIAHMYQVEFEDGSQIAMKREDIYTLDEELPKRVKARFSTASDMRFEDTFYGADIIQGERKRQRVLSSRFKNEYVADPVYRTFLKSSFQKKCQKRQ
Sequence of Large T antigen (P03070 whole entry): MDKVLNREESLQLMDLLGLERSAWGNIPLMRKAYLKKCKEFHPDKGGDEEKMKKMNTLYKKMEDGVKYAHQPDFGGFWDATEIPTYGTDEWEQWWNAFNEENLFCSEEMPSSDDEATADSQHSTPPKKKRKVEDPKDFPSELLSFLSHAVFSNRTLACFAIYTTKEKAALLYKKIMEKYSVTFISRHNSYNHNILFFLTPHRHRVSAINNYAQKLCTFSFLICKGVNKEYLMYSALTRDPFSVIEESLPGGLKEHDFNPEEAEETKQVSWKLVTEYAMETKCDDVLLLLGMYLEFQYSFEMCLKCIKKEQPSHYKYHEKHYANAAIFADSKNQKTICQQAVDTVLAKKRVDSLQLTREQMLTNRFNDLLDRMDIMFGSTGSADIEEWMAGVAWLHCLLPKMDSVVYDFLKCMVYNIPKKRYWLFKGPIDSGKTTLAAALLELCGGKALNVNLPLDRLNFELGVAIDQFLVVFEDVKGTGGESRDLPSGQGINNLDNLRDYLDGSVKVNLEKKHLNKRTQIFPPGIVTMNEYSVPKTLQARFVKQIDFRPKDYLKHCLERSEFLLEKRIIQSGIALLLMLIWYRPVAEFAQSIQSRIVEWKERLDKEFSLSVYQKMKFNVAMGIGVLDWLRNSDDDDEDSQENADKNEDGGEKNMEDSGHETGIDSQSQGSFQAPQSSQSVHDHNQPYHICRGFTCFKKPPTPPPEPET
Sequence of Keap1/Nrf2 (Q16236 whole entry): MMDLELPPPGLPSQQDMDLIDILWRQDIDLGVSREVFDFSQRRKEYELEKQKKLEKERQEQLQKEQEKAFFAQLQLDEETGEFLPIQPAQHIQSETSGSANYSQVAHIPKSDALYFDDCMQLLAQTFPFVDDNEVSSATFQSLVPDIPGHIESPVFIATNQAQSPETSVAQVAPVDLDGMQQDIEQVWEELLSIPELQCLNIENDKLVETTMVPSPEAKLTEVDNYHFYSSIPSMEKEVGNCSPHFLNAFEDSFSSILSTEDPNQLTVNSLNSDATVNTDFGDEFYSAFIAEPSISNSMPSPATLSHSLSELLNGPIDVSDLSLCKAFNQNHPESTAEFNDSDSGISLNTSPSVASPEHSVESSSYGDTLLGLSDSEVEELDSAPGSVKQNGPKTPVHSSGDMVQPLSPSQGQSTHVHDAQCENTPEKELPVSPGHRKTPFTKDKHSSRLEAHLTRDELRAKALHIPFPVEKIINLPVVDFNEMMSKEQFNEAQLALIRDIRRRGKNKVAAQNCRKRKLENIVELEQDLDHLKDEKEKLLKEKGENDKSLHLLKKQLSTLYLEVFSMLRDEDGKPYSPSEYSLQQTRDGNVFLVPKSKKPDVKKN
Sequence of Keap1/Nrf2 (Q14145 whole entry): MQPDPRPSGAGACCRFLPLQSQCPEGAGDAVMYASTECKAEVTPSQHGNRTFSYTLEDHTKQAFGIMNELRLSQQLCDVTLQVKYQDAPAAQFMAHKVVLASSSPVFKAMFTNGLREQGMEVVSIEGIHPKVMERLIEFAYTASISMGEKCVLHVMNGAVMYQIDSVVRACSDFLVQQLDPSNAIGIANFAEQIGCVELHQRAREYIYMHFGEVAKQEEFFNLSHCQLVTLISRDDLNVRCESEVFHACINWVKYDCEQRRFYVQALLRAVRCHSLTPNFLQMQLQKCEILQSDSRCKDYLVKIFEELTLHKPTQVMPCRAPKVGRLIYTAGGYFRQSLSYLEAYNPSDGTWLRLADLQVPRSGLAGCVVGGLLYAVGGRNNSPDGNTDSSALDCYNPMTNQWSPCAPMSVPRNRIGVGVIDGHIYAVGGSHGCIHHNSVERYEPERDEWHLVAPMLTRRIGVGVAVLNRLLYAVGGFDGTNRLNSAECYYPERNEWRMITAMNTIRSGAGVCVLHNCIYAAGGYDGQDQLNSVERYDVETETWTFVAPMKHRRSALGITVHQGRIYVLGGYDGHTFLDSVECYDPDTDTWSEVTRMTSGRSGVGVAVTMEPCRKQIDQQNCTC

In the case of `O=c1c(-c2cc3ccccc3o2)[n+]([O-])c2ccccc2n1OCc1ccccn1`, the EC50 (H4) is reported as 65.5 µM (inconclusive), the EC50 [1] is reported as 4.81 µM (active) and the AC50 (Keap1/Nrf2) is reported as > 52 µM (inactive).

For `CCOc1ccc(-c2n[nH]c(=S)[nH]2)cc1`, the IC50 (Large T antigen) was > 100 µM (active), the IC50 (Phosphomannomutase 2) was > 100 µM (inactive) and the IC50 [2] was 39.1 µM (active).

In the case of `O=C1C2(CCCC13COC(c1ccc(O)cc1)OC3)COC(c1ccc(O)cc1)OC2` (stereo not drawn), the EC50 [3] is reported as 9.2 µM (active).

For `Cc1nnc(N/N=C\c2ccc(-c3ccccc3[N+](=O)[O-])o2)n1N`, the AC50 [4] was 58.9 µM (active), the IC50 [5] was > 50 µM (not active) and the AC50 [6] was 7.3 µM (active). The AC50 [7] was 10.3 µM (active) and the EC50 (Protein RecA) was 23.5 µM (active).

For `Cc1cc(C)c(NC(=O)CCC2CCCC2)c(C)c1`, the EC50 [8] was 0.49 µM (active).
